Laboratory results as given in ChEMBL document CHEMBL3112450, “Synthesis and in vitro antitumor evaluation of primary amine substituted quinazoline linked benzimidazole” (Bioorg Med Chem Lett, 2014).

Columns and labels:
Format in all cases: functional
[1] = Cytotoxicity against human EKVX cells assessed as cell growth at 10^-5 M after 48 hrs by SRB assay; settings: read-out: Activity
LOX IMVI [2] = test: Cytotoxicity against human LOXIMVI cells assessed as cell growth at 10^-4 M after 48 hrs by SRB assay; settings: read-out: Activity
U-251 = test: Cytotoxicity against human U251 cells assessed as cell growth at 10^-7 M after 48 hrs by SRB assay; settings: U-251, 48 h, read-out: Activity
NCI-H226 = test: Cytotoxicity against human NCI-H226 cells assessed as cell growth at 10^-8 M after 48 hrs by SRB assay; settings: NCI-H226, 48 h, read-out: Activity
NCI-H322M [3] = test: Cytotoxicity against human NCI-H322M cells assessed as cell growth at 10^-4 M after 48 hrs by SRB assay; settings: read-out: Activity
MDA-MB-231 = test: Cytotoxicity against human MDA-MB-231 cells assessed as cell growth at 10^-8 M after 48 hrs by SRB assay; settings: MDA-MB-231, 48 h, read-out: Activity
CCRF-CEM [4] = test: Cytotoxicity against human CCRF-CEM cells assessed as cell growth at 10^-6 M after 48 hrs by SRB assay; settings: read-out: Activity
SF-268 = test: Cytotoxicity against human SF268 cells after 48 hrs by SRB assay; settings: SF-268, 48 h
KM12 = test: Cytotoxicity against human KM12 cells assessed as cell growth at 10^-6 M after 48 hrs by SRB assay; settings: KM12, 48 h, read-out: Activity
HL-60(TB) [5] = test: Cytotoxicity against human HL-60(TB) cells assessed as cell growth at 10^-4 M after 48 hrs by SRB assay; settings: HL-60, 48 h, read-out: Activity
[6] = Cytotoxicity against human NCI-ADR-RES cells assessed as cell growth at 10^-7 M after 48 hrs by SRB assay; settings: read-out: Activity
T47D = test: Cytotoxicity against human T47D cells assessed as cell growth at 10^-4 M after 48 hrs by SRB assay; settings: read-out: Activity
ACHN = test: Cytotoxicity against human ACHN cells assessed as cell growth at 10^-4 M after 48 hrs by SRB assay; settings: read-out: Activity
[7] = Cytotoxicity against human OVCAR4 cells assessed as cell growth at 10^-7 M after 48 hrs by SRB assay; settings: OVCAR-4, 48 h, read-out: Activity
[8] = Cytotoxicity against human OVCAR4 cells assessed as cell growth at 10^-6 M after 48 hrs by SRB assay; settings: OVCAR-4, 48 h, read-out: Activity
OVCAR-3 = test: Cytotoxicity against human OVCAR3 cells assessed as cell growth at 10^-8 M after 48 hrs by SRB assay; settings: OVCAR-3, 48 h, read-out: Activity
SF-295 [9] = test: Cytotoxicity against human SF295 cells assessed as cell growth at 10^-6 M after 48 hrs by SRB assay; settings: SF-295, 48 h, read-out: Activity
[10] = Cytotoxicity against human OVCAR5 cells after 48 hrs by SRB assay; settings: OVCAR-5, 48 h
HCT-116 = test: Cytotoxicity against human HCT116 cells assessed as cell growth at 10^-4 M after 48 hrs by SRB assay; settings: HCT-116, 48 h, read-out: Activity
UACC-62 = test: Cytotoxicity against human UACC62 cells after 48 hrs by SRB assay; settings: UACC-62, 48 h
K562 [11] = test: Cytotoxicity against human K562 cells assessed as cell growth at 10^-4 M after 48 hrs by SRB assay; settings: K562, 48 h, read-out: Activity
CCRF-CEM [12] = test: Cytotoxicity against human CCRF-CEM cells assessed as cell growth at 10^-7 M after 48 hrs by SRB assay; settings: read-out: Activity
SNB-19 = test: Cytotoxicity against human SNB19 cells assessed as cell growth at 10^-4 M after 48 hrs by SRB assay; settings: SNB-19, 48 h, read-out: Activity
HCT-15 = test: Cytotoxicity against human HCT15 cells assessed as cell growth at 10^-4 M after 48 hrs by SRB assay; settings: HCT-15, 48 h, read-out: Activity
HL-60(TB) [13] = test: Cytotoxicity against human HL-60(TB) cells assessed as cell growth at 10^-7 M after 48 hrs by SRB assay; settings: HL-60, 48 h, read-out: Activity
SK-MEL-28 = test: Cytotoxicity against human SK-MEL-28 cells assessed as cell growth at 10^-6 M after 48 hrs by SRB assay; settings: SK-MEL-28, 48 h, read-out: Activity
LOX IMVI [14] = test: Cytotoxicity against human LOXIMVI cells after 48 hrs by SRB assay
HT-29 = test: Cytotoxicity against human HT-29 cells assessed as cell growth at 10^-4 M after 48 hrs by SRB assay; settings: HT-29, 48 h, read-out: Activity
SK-OV-3 = test: Cytotoxicity against human SKOV3 cells assessed as cell growth at 10^-8 M after 48 hrs by SRB assay; settings: SK-OV-3, 48 h, read-out: Activity
NCI-H322M [15] = test: Cytotoxicity against human NCI-H322M cells assessed as cell growth at 10^-6 M after 48 hrs by SRB assay; settings: read-out: Activity
LOX IMVI [16] = test: Cytotoxicity against human LOXIMVI cells assessed as cell growth at 10^-8 M after 48 hrs by SRB assay; settings: read-out: Activity
SK-MEL-5 = test: Cytotoxicity against human SK-MEL-5 cells after 48 hrs by SRB assay; settings: SK-MEL-5, 48 h
SK-MEL-2 = test: Cytotoxicity against human SK-MEL-2 cells assessed as cell growth at 10^-8 M after 48 hrs by SRB assay; settings: SK-MEL-2, 48 h, read-out: Activity
SF-295 [17] = test: Cytotoxicity against human SF295 cells assessed as cell growth at 10^-4 M after 48 hrs by SRB assay; settings: SF-295, 48 h, read-out: Activity
OVCAR-8 [18] = test: Cytotoxicity against human OVCAR8 cells after 48 hrs by SRB assay; settings: OVCAR-8, 48 h
HOP-92 = test: Cytotoxicity against human HOP92 cells after 48 hrs by SRB assay; settings: HOP-92, 48 h
[19] = Cytotoxicity against human OVCAR5 cells assessed as cell growth at 10^-8 M after 48 hrs by SRB assay; settings: OVCAR-5, 48 h, read-out: Activity
SF-295 [20] = test: Cytotoxicity against human SF295 cells assessed as cell growth at 10^-7 M after 48 hrs by SRB assay; settings: SF-295, 48 h, read-out: Activity
K562 [21] = test: Cytotoxicity against human K562 cells assessed as cell growth at 10^-7 M after 48 hrs by SRB assay; settings: K562, 48 h, read-out: Activity
OVCAR-8 [22] = test: Cytotoxicity against human OVCAR8 cells assessed as growth inhibition at 10 uM after 48 hrs by SRB assay; settings: OVCAR-8, 48 h, read-out: GI

Compound: C=CCn1c(C)nc2ccc(Nc3nc(Nc4ncccn4)nc4ccccc34)cc21
- growth at 10 µM [1]: 87.2%

Compound: C=CCn1c(C)nc2cc(Nc3nc(Nc4ccc5nc(C)n(CC=C)c5c4)nc4ccccc34)ccc21
- growth at 10 µM [1]: 97.1%

Compound: C=CCn1c(C)nc2cc(Nc3nc(Nc4ccc5nc(C)n(CC=C)c5c4)c4ccccc4n3)ccc21
- growth at 100 µM (LOX IMVI [2]): -71%
- growth at 0.1 µM (U-251): 95%
- growth at 0.01 µM (NCI-H226): 93%
- growth at 100 µM (NCI-H322M [3]): -70%
- growth at 0.01 µM (MDA-MB-231): 111%
- growth at 1 µM (CCRF-CEM [4]): -14%
- GI50 (SF-268): 1040 nM
- LC50 (50% lethal concentration) (SF-268): 4.73 µM
- TGI (SF-268): 2210 nM
- growth at 1 µM (KM12): -40%
- growth at 100 µM (HL-60(TB) [5]): -28%
- growth at 0.1 µM [6]: 100%
- growth at 100 µM (T47D): -13%
- growth at 100 µM (ACHN): -38%
- growth at 0.1 µM [7]: 102%
- growth at 1 µM [8]: -16%
- growth at 0.01 µM (OVCAR-3): 100%
- growth at 1 µM (SF-295 [9]): 78%
- GI50 [10]: 400 nM
- TGI [10]: 1490 nM
- growth at 100 µM (HCT-116): 3%
- GI50 (UACC-62): 1260 nM
- TGI (UACC-62): 2590 nM
- growth at 100 µM (K562 [11]): 2%
- growth at 0.1 µM (CCRF-CEM [12]): 107%
- growth at 100 µM (SNB-19): -35%
- growth at 100 µM (HCT-15): 2%
- growth at 0.1 µM (HL-60(TB) [13]): 96%
- growth at 1 µM (SK-MEL-28): 104%
- GI50 (LOX IMVI [14]): 180 nM
- LC50 (LOX IMVI [14]): 640 nM
- TGI (LOX IMVI [14]): 339 nM
- growth at 100 µM (HT-29): -50%
- growth at 0.01 µM (SK-OV-3): 95%
- growth at 1 µM (NCI-H322M [15]): 43%
- growth at 0.01 µM (LOX IMVI [16]): 95%
- GI50 (SK-MEL-5): 1590 nM
- TGI (SK-MEL-5): 3.69 µM
- growth at 0.01 µM (SK-MEL-2): 96%
- growth at 100 µM (SF-295 [17]): -85%
- GI50 (OVCAR-8 [18]): 284 nM
- LC50 (OVCAR-8 [18]): > 100 µM
- GI50 (HOP-92): 780 nM
- LC50 (HOP-92): 4.69 µM
- TGI (HOP-92): 2080 nM
- growth at 0.01 µM [19]: 93%
- growth at 0.1 µM (SF-295 [20]): 93%
- growth at 0.1 µM (K562 [21]): 99%

Compound: C=CCn1c(C)nc2ccc(Nc3nc(NCCO)nc4ccccc34)cc21
- growth at 10 µM [1]: 95.5%

Compound: C=CCn1c(C)nc2ccc(Nc3nc(Sc4ccc(N)cc4)nc4ccccc34)cc21
- growth at 10 µM [1]: 96.5%
- inhibition of growth at 10 µM (OVCAR-8 [22]): 30%

Compound: C=CCn1c(C)nc2cc(Nc3nc(NCCO)nc4ccccc34)ccc21
- inhibition of growth at 10 µM (OVCAR-8 [22]): 30%

Compound: C=CCn1c(C)nc2ccc(Nc3nc(Nc4ccc5nc(C)n(CC=C)c5c4)c4ccccc4n3)cc21
- growth at 100 µM (LOX IMVI [2]): 7%
- growth at 0.1 µM (U-251): 94%
- growth at 0.01 µM (NCI-H226): 90%
- growth at 100 µM (NCI-H322M [3]): -58%
- growth at 0.01 µM (MDA-MB-231): 92%
- growth at 1 µM (CCRF-CEM [4]): 82%
- GI50 (SF-268): 1540 nM
- TGI (SF-268): 3220 nM
- growth at 1 µM (KM12): 89%
- growth at 100 µM (HL-60(TB) [5]): -32%
- growth at 0.1 µM [6]: 95%
- growth at 100 µM (T47D): -22%
- growth at 100 µM (ACHN): -69%
- growth at 0.1 µM [7]: 95%
- growth at 1 µM [8]: 84%
- growth at 0.01 µM (OVCAR-3): 99%
- growth at 1 µM (SF-295 [9]): 97%
- GI50 [10]: 1700 nM
- LC50 [10]: 5.62 µM
- TGI [10]: 3090 nM
- growth at 100 µM (HCT-116): 1%
- GI50 (UACC-62): 1550 nM
- TGI (UACC-62): 2890 nM
- CC50 (UACC-62; read-out: LC50 (the source's name)): 5.38 µM
- growth at 100 µM (K562 [11]): 1%
- growth at 0.1 µM (CCRF-CEM [12]): 96%
- growth at 100 µM (SNB-19): -34%
- growth at 100 µM (HCT-15): -15%
- growth at 0.1 µM (HL-60(TB) [13]): 94%
- growth at 1 µM (SK-MEL-28): 102%
- GI50 (LOX IMVI [14]): 1550 nM
- growth at 100 µM (HT-29): -16%
- growth at 0.01 µM (SK-OV-3): 97%
- growth at 1 µM (NCI-H322M [15]): 92%
- growth at 0.01 µM (LOX IMVI [16]): 91%
- GI50 (SK-MEL-5): 1650 nM
- TGI (SK-MEL-5): 3.03 µM
- growth at 0.01 µM (SK-MEL-2): 96%
- growth at 100 µM (SF-295 [17]): -21%
- GI50 (OVCAR-8 [18]): 1560 nM
- TGI (OVCAR-8 [18]): 3.25 µM
- GI50 (HOP-92): 1370 nM
- TGI (HOP-92): 2930 nM
- growth at 0.01 µM [19]: 95%
- growth at 0.1 µM (SF-295 [20]): 98%
- growth at 0.1 µM (K562 [21]): 94%
